Source: ChEMBL document CHEMBL4610066, “Phytol, a Chlorophyll Component, Produces Antihyperalgesic, Anti-inflammatory, and Antiarthritic Effects: Possible NFκB Pathway Involvement and Reduced Levels of the Proinflammatory Cytokines TNF-α and IL-6” (J Nat Prod, 2020)
Calls of active or inactive are those of the source.

Experiments:
Mus musculus [1] = assay: Analgesic activity in formalin-induced albino Swiss mouse model of nociception assessed as reduction in time spent in paw licking during inflammatory phase at 25 to 50 mg/kg, po pretreated for 1 hr followed by formalin stimulation and measured after 15 to 30 mins by formalin test; type: functional, organism-based
[2] = Neurotoxicity in complete freund's adjuvant-induced albino Swiss mouse model of arthritis assessed as motor coordination impairment at 50 mg/kg, po pretreated for 1 hr followed by CFA stimulation and measured up to 240 mins by rotarod test; type: toxicity, organism-based; conditions: in vivo, 4 h
Mus musculus [3] = assay: Antiinflammatory activity in complete freund's adjuvant-induced albino Swiss mouse model of arthritis assessed as reduction in joint swelling at 50 mg/kg, po administered once daily for 10 days measured every other day during compound dosing; type: functional, organism-based
Mus musculus [4] = assay: Antiinflammatory activity in complete freund's adjuvant-induced albino Swiss mouse model of arthritis assessed as reduction in TNFalpha production in synovial fluid at 50 mg/kg, po pretreated for 1 hr followed by CFA stimulation and measured after 3 days; type: functional, organism-based
Mus musculus [5] = assay: Analgesic activity in complete freund's adjuvant-induced albino Swiss mouse model of hyperalgesia assessed as increase in paw withdrawal threshold at 50 mg/kg, po pretreated for 1 hr followed by CFA stimulation and measured after 7 hrs by analgesimetric method; type: functional, organism-based
Mus musculus [6] = assay: In vivo inhibition of NFkappaB phosphorylation at ser536 residue in complete freund's adjuvant-induced albino Swiss mouse model of arthritis at 50 mg/kg, po pretreated for 1 hr followed by CFA stimulation and measured after 3 days by Western blot analysis; type: functional, organism-based
Mus musculus [7] = assay: (§1) Antiinflammatory activity in complete freund's adjuvant-induced albino Swiss mouse model of arthritis assessed as reduction in COX2 production in spinal cord at 50 mg/kg, po pretreated for 1 hr followed by CFA stimulation and measured after 3 days by Western blot analysis; type: functional, organism-based
Mus musculus [8] = assay: Antiinflammatory activity in complete freund's adjuvant-induced albino Swiss mouse model of arthritis assessed as reduction in leukocyte content in synovial fluid at 50 mg/kg, po pretreated for 1 hr followed by CFA stimulation and measured after 3 days; type: functional, organism-based
Mus musculus [9] = assay: Antiinflammatory activity in complete freund's adjuvant-induced albino Swiss mouse model of arthritis assessed as reduction in paw edema at 50 mg/kg, po pretreated for 1 hr followed by CFA stimulation and measured up to 6 hrs by plethysmometric method relative to control; type: functional; design: scale not given: the % may be the effect or the level left
Mus musculus [10] = assay: Antiinflammatory activity in complete freund's adjuvant-induced albino Swiss mouse model of arthritis assessed as reduction in IL6 production in spinal cord at 50 mg/kg, po pretreated for 1 hr followed by CFA stimulation and measured after 3 days; type: functional, organism-based
Mus musculus [11] = assay: as §1, with “In vivo inhibition of MAPK pathway” for “Antiinflammatory activity”, “phosphorylated p38 MAPK to total p38 MAPK ratio” for “COX2 production”; type: functional, organism-based
Mus musculus [12] = assay: Antiinflammatory activity in complete freund's adjuvant-induced albino Swiss mouse model of arthritis assessed as reduction in IL6 production in synovial fluid at 50 mg/kg, po pretreated for 1 hr followed by CFA stimulation and measured after 3 days; type: functional, organism-based
Mus musculus [13] = assay: Antiinflammatory activity in complete freund's adjuvant-induced albino Swiss mouse model of arthritis assessed as reduction in paw edema AUC at 25 mg/kg, po pretreated for 1 hr followed by CFA stimulation and measured up to 6 hrs by plethysmometric method relative to control; type: functional; design: scale not given: the % may be the effect or the level left
[14] = Neurotoxicity in complete freund's adjuvant-induced albino Swiss mouse model of arthritis assessed as induction of myorelaxant effect by measuring change in muscle force at 50 mg/kg, po pretreated for 1 hr followed by CFA stimulation and measured every other day for 10 days by grip strength meter method; type: toxicity, organism-based; conditions: in vivo, 240 h
Mus musculus [15] = assay: Effect on ERK1/2 signaling in complete freund's adjuvant-induced albino Swiss mouse model of arthritis at 50 mg/kg, po pretreated for 1 hr followed by CFA stimulation and measured after 3 days by Western blot analysis; type: functional, organism-based
Mus musculus [16] = assay: Antiinflammatory activity in complete freund's adjuvant-induced albino Swiss mouse model of arthritis assessed as suppression of CFA-induced increase in total NFkappaB level at 50 mg/kg, po pretreated for 1 hr followed by CFA stimulation and measured after 3 days by Western blot analysis; type: functional, organism-based
Mus musculus [17] = assay: Analgesic activity in formalin-induced albino Swiss mouse model of nociception assessed as reduction in time spent in paw licking during neurogenic phase at 50 mg/kg, po pretreated for 1 hr followed by formalin stimulation and measured up to 5 mins by formalin test; type: functional, organism-based
Mus musculus [18] = assay: Analgesic activity in albino Swiss mouse assessed as increase in reaction time at 25 mg/kg, po measured after 60 to 90 mins by hot plate test; type: functional, organism-based
Mus musculus [19] = assay: Analgesic activity in albino Swiss mouse assessed as increase in reaction time at 50 mg/kg, po measured after 60 to 240 mins by hot plate test; type: functional, organism-based
Mus musculus [20] = assay: Antiinflammatory activity in complete freund's adjuvant-induced albino Swiss mouse model of arthritis assessed as reduction in IL10 production in synovial fluid at 50 mg/kg, po pretreated for 1 hr followed by CFA stimulation and measured after 3 days; type: functional, organism-based
Mus musculus [21] = assay: Antiinflammatory activity in complete freund's adjuvant-induced albino Swiss mouse model of arthritis assessed as reduction in paw volume at 25 to 50 mg/kg, po pretreated for 1 hr followed by CFA stimulation and measured after 2 hrs by plethysmometric method; type: functional, organism-based
Mus musculus [22] = assay: Antiinflammatory activity in complete freund's adjuvant-induced albino Swiss mouse model of arthritis assessed as reduction in paw edema AUC at 50 mg/kg, po pretreated for 1 hr followed by CFA stimulation and measured up to 6 hrs by plethysmometric method relative to control; type: functional; design: scale not given: the % may be the effect or the level left
Mus musculus [23] = assay: Antiinflammatory activity in complete freund's adjuvant-induced albino Swiss mouse model of arthritis assessed as reduction in edema AUC at 50 mg/kg, po administered once daily for 10 days measured every other day during compound dosing relative to control; type: functional; design: scale not given: the % may be the effect or the level left
Mus musculus [24] = assay: Analgesic activity in complete freund's adjuvant-induced albino Swiss mouse model of hyperalgesia assessed as increase in paw withdrawal threshold at 50 mg/kg, po administered daily and measured every other for 10 days and on day 21 and 28; type: functional, organism-based
Mus musculus [25] = assay: Analgesic activity in albino Swiss mouse assessed as increase in reaction time at 25 mg/kg, po measured after 120 to 240 mins by hot plate test; type: functional, organism-based
Mus musculus [26] = assay: Antiinflammatory activity in complete freund's adjuvant-induced albino Swiss mouse model of arthritis assessed as reduction in MPO activity in synovial fluid at 50 mg/kg, po pretreated for 1 hr followed by CFA stimulation and measured after 3 days; type: functional, organism-based

## C/C(=C\CO)CCC[C@H](C)CCC[C@H](C)CCCC(C)C [TRANS-PHYTOL]
Mus musculus [1]
  Activity: Active
[2]
  Activity: Non-Toxic
Mus musculus [3]
  Activity: Active
Mus musculus [4]
  Activity: Active
Mus musculus [5]
  Activity: Active
Mus musculus [6]
  inhibition: Active
Mus musculus [7]
  Activity: Active
Mus musculus [8]
  Activity: Active
Mus musculus [9]
  Activity: 45%
Mus musculus [10]
  Activity: Active
Mus musculus [11]
  inhibition: Active
Mus musculus [12]
  Activity: Active
Mus musculus [13]
  Activity: 18%
[14]
  Activity: Non-Toxic
Mus musculus [15]
  Activity: inactive
Mus musculus [16]
  Activity: Active
Mus musculus [17]
  Activity: Active
Mus musculus [18]
  Activity: Active
Mus musculus [19]
  Activity: Active
Mus musculus [20]
  Activity: inactive
Mus musculus [21]
  Activity: Active
Mus musculus [22]
  Activity: 45%
Mus musculus [23]
  Activity: 46%
Mus musculus [24]
  Activity: Active
Mus musculus [25]
  Activity: inactive
Mus musculus [26]
  Activity: Active
